Publication PMC6694107, “Characterization and overproduction of cell-associated cholesterol oxidase ChoD from Streptomyces lavendulae YAKB-15” (Scientific Reports, 2019)

Test system: T1, ChoD
T1 construct: ORF 547 aa including TAT signal; FAD enzyme
Test: ABTS/peroxidase coupled H2O2 assay, […] nm, initial rates
Assay type: biochemical, Streptomyces lavendulae
Conditions: pH 7 sodium-potassium phosphate, Triton X-100, ethanol (general assay); 8.4 nM enzyme, 4-168 µM cholesterol

How did the Km turn out when CC(C)CCC[C@@H](C)[C@H]1CC[C@H]2[C@@H]3CC=C4C[C@@H](O)CC[C@]4(C)[C@H]3CC[C@]12C [cholesterol] was run?
The Km was 15.9 µM.
